Results as given in PMC4138023, “Selective HDAC Inhibition for the Disruption of Latent HIV-1 Infection” (PLoS ONE, 2014).

Assays:
Test in all cases: microfluidic mobility shift (LabChip), FAM-acetylated peptide substrate
Type in all cases: biochemical
HDAC4 = molecular target: T1, HDAC4 (Homo sapiens, UniProt P56524); conditions: read-out: HDAC IC50 (μM) without preincubation / HDAC4
T1 construct: purified commercial enzyme from BPS Bioscience
Source text: microfluidic mobility shift (LabChip), FAM-acetylated peptide substrate on HDAC4

HDAC6 = molecular target: T2, HDAC6 (Homo sapiens, UniProt Q9UBN7); conditions: read-out: HDAC IC50 (μM) without preincubation / HDAC4
T2 construct: purified commercial enzyme from BPS Bioscience
T2 sequence (Q9UBN7 1-1215): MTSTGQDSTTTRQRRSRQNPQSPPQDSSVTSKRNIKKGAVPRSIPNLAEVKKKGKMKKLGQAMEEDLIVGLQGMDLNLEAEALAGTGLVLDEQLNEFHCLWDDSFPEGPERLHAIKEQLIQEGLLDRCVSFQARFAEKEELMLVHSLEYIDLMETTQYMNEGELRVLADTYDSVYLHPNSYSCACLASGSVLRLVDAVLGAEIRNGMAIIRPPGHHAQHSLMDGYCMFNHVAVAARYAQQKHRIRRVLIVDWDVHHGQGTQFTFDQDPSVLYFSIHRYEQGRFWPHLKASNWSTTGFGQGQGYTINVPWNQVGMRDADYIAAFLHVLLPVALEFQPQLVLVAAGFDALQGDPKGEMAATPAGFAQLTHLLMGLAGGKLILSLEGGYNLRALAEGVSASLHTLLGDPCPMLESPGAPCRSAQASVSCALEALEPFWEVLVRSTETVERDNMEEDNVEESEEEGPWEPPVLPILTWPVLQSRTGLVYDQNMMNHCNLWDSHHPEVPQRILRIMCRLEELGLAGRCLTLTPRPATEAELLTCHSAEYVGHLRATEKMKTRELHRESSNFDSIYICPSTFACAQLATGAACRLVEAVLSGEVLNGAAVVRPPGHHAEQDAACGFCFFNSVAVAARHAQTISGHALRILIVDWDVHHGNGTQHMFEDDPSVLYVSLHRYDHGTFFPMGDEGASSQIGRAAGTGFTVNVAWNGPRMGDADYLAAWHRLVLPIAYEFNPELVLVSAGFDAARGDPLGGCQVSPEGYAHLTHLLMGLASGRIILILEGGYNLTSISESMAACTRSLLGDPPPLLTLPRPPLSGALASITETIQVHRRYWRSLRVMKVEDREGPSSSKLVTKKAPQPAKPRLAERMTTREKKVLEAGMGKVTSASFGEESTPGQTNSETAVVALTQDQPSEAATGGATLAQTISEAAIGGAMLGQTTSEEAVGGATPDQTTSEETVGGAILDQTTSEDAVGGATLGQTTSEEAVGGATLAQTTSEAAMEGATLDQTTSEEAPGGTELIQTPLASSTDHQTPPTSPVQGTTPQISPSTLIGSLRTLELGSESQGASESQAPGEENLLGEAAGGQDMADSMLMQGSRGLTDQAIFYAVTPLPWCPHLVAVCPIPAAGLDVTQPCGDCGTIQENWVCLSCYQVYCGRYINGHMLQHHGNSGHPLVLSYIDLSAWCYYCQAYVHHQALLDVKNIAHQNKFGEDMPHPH
Source text: microfluidic mobility shift (LabChip), FAM-acetylated peptide substrate on HDAC6

HDAC7 = molecular target: T3, HDAC7 (Homo sapiens, UniProt Q8WUI4); conditions: read-out: HDAC IC50 (μM) without preincubation / HDAC4
T3 construct: purified commercial enzyme from BPS Bioscience
T3 sequence (Q8WUI4 518-952 limits assumed): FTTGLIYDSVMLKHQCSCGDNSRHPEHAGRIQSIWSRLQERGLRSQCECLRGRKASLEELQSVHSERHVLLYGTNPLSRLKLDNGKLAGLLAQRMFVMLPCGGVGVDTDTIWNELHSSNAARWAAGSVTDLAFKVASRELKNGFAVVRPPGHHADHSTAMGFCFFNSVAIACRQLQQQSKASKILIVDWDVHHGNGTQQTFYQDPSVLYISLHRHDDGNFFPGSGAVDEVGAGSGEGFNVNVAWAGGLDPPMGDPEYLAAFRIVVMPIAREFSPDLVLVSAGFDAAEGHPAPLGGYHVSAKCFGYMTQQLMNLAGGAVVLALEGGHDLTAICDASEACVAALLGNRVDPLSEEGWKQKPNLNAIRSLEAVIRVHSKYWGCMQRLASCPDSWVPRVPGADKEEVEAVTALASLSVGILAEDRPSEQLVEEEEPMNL
Source text: microfluidic mobility shift (LabChip), FAM-acetylated peptide substrate on HDAC7

HDAC2 = molecular target: T4, HDAC2 (Homo sapiens, UniProt Q92769); conditions: without preincubation; […] min, room temperature, pH […] substrate; read-out: HDAC IC50 (μM) without preincubation / HDAC2
T4 construct: purified commercial enzyme from BPS Bioscience
Source text: microfluidic mobility shift (LabChip), FAM-acetylated peptide substrate on HDAC2

HDAC3 = molecular target: T5, HDAC3 (Homo sapiens, UniProt O15379); conditions: without preincubation; […] min, room temperature, pH […] substrate; read-out: HDAC IC50 (μM) without preincubation / HDAC3
T5 construct: purified commercial enzyme from BPS Bioscience; with Nuclear receptor corepressor 2
Source text: microfluidic mobility shift (LabChip), FAM-acetylated peptide substrate on HDAC3

HDAC9 = molecular target: T6, HDAC9 (Homo sapiens, UniProt Q9UKV0); conditions: read-out: HDAC IC50 (μM) without preincubation / HDAC9
T6 construct: purified commercial enzyme from BPS Bioscience
Source text: microfluidic mobility shift (LabChip), FAM-acetylated peptide substrate on HDAC9

HDAC1 = molecular target: T7, HDAC1 (Homo sapiens, UniProt Q13547); conditions: without preincubation; […] min, room temperature, pH […] substrate; read-out: HDAC IC50 (μM) without preincubation / HDAC1
T7 construct: purified commercial enzyme from BPS Bioscience
Source text: microfluidic mobility shift (LabChip), FAM-acetylated peptide substrate on HDAC1

HDAC5 = molecular target: T8, HDAC5 (Homo sapiens, UniProt Q9UQL6); conditions: read-out: HDAC IC50 (μM) without preincubation / HDAC5
T8 construct: purified commercial enzyme from BPS Bioscience
Source text: microfluidic mobility shift (LabChip), FAM-acetylated peptide substrate on HDAC5

HDAC8 = molecular target: T9, HDAC8 (Homo sapiens, UniProt Q9BY41); conditions: read-out: HDAC IC50 (μM) without preincubation / HDAC4
T9 construct: purified commercial enzyme from BPS Bioscience
T9 sequence (Q9BY41 1-377): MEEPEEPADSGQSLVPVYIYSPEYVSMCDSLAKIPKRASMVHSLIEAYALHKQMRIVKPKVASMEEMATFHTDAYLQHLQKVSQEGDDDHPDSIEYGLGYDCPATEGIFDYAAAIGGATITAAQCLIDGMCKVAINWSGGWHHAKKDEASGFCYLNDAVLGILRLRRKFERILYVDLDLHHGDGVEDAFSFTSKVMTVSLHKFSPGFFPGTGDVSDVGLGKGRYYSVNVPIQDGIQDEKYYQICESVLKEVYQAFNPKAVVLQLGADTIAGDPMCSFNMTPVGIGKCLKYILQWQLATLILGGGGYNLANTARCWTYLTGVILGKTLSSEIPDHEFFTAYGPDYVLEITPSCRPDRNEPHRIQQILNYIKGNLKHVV
Source text: microfluidic mobility shift (LabChip), FAM-acetylated peptide substrate on HDAC8

T5 sequence (O15379 whole entry): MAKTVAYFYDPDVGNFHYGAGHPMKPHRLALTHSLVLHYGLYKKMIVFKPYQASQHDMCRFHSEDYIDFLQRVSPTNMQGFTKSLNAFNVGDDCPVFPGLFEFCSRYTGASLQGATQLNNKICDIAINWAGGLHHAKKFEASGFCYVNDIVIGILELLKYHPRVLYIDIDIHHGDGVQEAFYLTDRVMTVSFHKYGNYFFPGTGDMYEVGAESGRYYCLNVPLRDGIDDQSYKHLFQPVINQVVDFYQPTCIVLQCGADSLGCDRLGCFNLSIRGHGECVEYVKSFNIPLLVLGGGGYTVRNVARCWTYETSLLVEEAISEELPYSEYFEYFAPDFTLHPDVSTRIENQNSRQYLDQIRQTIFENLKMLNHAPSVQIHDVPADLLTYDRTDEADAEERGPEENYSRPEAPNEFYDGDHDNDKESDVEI
T5 sequence (Q9Y618 whole entry partner): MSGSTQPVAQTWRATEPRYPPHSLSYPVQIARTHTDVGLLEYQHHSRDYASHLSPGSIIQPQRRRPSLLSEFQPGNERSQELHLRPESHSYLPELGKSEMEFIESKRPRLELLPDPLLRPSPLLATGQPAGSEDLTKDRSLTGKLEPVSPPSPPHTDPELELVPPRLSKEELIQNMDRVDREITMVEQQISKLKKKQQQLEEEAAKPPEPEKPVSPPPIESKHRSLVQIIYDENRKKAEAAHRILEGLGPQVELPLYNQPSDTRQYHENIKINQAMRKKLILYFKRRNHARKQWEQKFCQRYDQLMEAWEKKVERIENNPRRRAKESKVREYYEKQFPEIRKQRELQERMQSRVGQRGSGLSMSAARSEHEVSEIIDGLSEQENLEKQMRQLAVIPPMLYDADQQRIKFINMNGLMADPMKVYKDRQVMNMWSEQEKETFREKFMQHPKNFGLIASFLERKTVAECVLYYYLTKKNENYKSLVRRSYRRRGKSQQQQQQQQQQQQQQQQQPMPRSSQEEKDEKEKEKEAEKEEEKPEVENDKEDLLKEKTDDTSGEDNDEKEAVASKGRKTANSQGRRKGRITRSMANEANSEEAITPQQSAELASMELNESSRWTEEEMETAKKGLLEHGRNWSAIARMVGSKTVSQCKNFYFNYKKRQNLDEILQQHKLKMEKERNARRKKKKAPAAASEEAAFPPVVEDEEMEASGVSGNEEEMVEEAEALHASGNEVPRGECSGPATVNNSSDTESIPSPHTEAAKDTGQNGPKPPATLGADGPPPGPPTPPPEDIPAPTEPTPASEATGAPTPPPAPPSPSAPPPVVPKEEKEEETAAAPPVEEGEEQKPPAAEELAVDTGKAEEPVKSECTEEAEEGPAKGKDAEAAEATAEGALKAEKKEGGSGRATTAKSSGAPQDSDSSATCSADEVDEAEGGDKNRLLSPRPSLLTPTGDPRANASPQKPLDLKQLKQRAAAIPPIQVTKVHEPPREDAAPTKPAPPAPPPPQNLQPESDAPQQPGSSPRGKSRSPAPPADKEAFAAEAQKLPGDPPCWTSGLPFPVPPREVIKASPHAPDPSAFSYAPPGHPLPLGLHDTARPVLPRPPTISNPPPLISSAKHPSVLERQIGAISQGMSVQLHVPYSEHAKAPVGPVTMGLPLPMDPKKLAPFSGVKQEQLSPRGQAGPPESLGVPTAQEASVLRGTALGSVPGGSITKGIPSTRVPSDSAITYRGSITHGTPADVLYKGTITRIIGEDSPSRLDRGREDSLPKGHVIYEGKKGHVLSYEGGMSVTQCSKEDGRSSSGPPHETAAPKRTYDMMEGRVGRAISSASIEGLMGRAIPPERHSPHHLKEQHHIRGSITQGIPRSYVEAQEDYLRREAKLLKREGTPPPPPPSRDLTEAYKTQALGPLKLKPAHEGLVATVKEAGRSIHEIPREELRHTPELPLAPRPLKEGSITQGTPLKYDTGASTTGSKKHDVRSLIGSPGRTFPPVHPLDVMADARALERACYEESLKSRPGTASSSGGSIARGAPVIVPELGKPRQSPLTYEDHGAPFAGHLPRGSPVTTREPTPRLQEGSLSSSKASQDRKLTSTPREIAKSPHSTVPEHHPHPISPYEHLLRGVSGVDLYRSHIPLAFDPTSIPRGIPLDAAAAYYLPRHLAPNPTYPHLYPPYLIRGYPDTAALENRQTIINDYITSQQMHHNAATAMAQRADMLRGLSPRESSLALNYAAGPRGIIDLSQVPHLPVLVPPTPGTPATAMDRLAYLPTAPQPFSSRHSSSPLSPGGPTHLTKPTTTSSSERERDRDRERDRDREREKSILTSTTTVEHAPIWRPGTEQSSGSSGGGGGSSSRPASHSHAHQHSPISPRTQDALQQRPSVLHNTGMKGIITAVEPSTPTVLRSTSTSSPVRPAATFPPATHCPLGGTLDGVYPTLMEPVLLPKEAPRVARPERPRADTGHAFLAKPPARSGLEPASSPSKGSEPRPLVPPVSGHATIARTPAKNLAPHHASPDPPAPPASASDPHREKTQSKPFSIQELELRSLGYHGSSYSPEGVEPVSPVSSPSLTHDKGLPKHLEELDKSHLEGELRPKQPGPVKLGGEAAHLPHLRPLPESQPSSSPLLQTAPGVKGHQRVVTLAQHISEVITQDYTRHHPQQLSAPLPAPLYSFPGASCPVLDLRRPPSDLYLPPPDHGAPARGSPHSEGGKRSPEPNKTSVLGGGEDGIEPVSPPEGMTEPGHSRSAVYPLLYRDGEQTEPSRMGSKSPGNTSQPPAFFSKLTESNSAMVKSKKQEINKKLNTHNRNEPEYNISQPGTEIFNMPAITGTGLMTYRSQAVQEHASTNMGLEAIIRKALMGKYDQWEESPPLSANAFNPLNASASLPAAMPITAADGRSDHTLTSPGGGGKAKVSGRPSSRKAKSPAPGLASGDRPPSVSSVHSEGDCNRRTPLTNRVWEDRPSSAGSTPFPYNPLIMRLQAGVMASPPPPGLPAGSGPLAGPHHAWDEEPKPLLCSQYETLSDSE
T6 sequence (Q9UKV0 604-1011 limits assumed): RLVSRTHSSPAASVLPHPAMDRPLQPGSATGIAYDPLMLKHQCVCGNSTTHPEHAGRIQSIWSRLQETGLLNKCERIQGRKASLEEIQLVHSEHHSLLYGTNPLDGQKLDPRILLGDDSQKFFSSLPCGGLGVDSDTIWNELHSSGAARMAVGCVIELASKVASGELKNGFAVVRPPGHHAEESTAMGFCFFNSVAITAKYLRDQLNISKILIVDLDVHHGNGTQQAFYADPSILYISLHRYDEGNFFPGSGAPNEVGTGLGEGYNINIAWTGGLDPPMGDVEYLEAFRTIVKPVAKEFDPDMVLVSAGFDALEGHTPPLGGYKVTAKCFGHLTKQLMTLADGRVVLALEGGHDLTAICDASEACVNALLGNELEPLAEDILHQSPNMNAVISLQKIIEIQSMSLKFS
T8 sequence (Q9UQL6 whole entry): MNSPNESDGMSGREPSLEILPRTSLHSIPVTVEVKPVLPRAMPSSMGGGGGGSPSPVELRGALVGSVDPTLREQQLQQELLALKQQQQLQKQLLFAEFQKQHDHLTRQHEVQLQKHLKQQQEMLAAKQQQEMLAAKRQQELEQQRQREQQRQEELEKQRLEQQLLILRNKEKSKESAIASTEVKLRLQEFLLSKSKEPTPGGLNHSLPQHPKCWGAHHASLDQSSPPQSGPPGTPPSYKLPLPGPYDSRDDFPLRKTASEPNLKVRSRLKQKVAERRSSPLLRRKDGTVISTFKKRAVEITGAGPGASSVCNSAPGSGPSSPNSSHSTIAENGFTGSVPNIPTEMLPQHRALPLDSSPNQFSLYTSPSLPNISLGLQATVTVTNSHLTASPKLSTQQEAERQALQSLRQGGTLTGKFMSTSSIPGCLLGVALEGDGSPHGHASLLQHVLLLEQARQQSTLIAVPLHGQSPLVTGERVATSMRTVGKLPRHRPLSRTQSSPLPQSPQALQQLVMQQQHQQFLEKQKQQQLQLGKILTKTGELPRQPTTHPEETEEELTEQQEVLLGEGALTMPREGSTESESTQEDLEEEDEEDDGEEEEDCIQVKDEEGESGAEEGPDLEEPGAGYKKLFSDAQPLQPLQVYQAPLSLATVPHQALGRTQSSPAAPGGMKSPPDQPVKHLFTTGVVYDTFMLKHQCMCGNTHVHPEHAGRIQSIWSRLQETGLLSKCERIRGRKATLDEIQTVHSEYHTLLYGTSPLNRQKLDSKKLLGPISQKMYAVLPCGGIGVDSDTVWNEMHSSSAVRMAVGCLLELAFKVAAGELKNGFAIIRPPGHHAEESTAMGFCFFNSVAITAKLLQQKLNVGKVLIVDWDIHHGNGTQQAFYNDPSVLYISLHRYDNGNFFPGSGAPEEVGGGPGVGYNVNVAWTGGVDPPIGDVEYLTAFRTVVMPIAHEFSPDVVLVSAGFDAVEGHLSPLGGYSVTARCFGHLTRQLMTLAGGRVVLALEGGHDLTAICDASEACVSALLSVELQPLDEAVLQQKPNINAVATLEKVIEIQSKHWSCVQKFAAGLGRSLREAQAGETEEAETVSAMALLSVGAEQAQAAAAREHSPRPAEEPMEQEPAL
T1 sequence (P56524 627-1084 limits assumed): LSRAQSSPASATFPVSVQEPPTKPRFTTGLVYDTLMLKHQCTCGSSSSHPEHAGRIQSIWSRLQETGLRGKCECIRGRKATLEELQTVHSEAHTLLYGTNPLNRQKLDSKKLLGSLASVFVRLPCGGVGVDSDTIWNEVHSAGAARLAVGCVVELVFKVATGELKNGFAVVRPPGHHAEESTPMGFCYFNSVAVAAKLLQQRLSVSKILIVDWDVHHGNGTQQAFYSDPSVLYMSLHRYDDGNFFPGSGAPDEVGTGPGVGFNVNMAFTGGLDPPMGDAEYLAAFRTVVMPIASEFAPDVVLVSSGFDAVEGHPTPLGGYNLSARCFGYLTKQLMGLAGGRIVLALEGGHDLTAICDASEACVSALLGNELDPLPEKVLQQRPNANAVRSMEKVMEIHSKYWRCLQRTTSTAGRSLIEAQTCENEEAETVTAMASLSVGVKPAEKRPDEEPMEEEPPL

IC50 (HDAC4): > 33 µM
IC50 (HDAC6): > 33 µM
IC50 (HDAC7): > 33 µM
IC50 (HDAC2): 1.34 µM
IC50 (HDAC3): 0.054 µM
IC50 (HDAC9): > 33 µM
IC50 (HDAC1): 1.26 µM
IC50 (HDAC5): > 33 µM
IC50 (HDAC8): > 33 µM
SMILES: CC(=O)Nc1ccc(C(=O)Nc2ccc(F)cc2N)cc1 [BRD3308]
